The nature of data set [1]: Cytotoxicity against human HeLaC3 cells by LDH release assay. Format: cell-based. As to conditions: hela c3. (Release of lactate dehydrogenase indicates damage to the cell membrane.)
Data set [2] can be described thus: Cytotoxicity against human IMR32 cells by LDH release assay. It counts as cell-based. As to conditions: imr-32.
For data set [3], the species on record is Mus musculus. Put plainly: Destabilization of microtubule-associated protein tau protein in mouse brain slice assessed as reduction in tau protein level at 50 to 250 uM. It counts as tissue-based.
Data set [4] has as its system HeLa-C3. Put plainly: Destabilization of microtubule-associated protein tau protein in human HeLa-C3 cells assessed as reduction in tau protein level at 50 to 250 uM. Format: cell-based.
Data set [5] relates to IMR-32. Put plainly: Destabilization of microtubule-associated protein tau protein in human IMR32 cells assessed as reduction in tau protein level at 50 to 250 uM. Format: cell-based.

Calls of active or inactive are those of the source. No cut-off for these calls is given here.

Regarding `COc1c2cc(c(O)c1OC)CCCC[C@H](O)CCc1ccc(O)c-2c1`, the Activity result in data set [1] and in data set [2] was “Non-toxic” each time. Besides, the outcome in data set [3], in data set [4] and in data set [5] was Active.

The values are drawn from ChEMBL document CHEMBL1667732, “The diarylheptanoid (+)-aR,11S-myricanol and two flavones from bayberry (Myrica cerifera) destabilize the microtubule-associated protein tau” (J Nat Prod, 2011).
